Reference: patent US20170334891A1, “ENHANCER OF ZESTE HOMOLOG 2 INHIBITORS” (GLAXOSMITHKLINE INTELLECTUAL PROPERTY (NO.2) LIMITED, priority 2014, published 2017)

What follows are compounds tested against T1, EZH2 within the PRC2 complex (Homo sapiens, UniProt Q15910) (assay: EZH2 methyltransferase scintillation proximity assay (SPA)). Details: Human PRC2 5 member complex (FLAG-EZH2, EED, SUZ12, RbAp48, AEBP2), 1 nM enzyme, biotinylated histone H3K27 peptide, 3H-SAM, 60 min at room temperature.
T1 construct: FLAG; made in house; host or cells: Sf9 cells
Type: biochemical
Method: Compounds contained herein were evaluated for their ability to inhibit the methyltransferase activity of EZH2 within the PRC2 complex. Human PRC2 complex was prepared by co-expressing each of the 5 member proteins (FLAG-EZH2, EED, SUZ12, RbAp48, AEBP2) in Sf9 cells followed by co-purification. Enzyme activity was measured in a scintillation proximity assay (SPA) where a tritiated methyl group is transferred from 3H-SAM to a lysine residue on a biotinylated, unmethylated peptide substrate derived from histone H3. The peptides were captured on streptavidin-coated SPA beads and the resulting signal was read on a ViewLux plate reader.
• 1. Prepare 10 mM stock of compounds from solid in 100% DMSO. • 2. Set up an 11-point serial dilution (1:4 dilution, top concentration 10 mM) in 100% DMSO for each test compound in a 384 well plate leaving columns 6 and 18 for DMSO controls. • 3. Dispense 10 nL of compound from the dilution plate into reaction plates (Corning, 384-well polystyrene NBS, Cat#3673).
Prepare the following solutions: • 1. 1× Base Buffer, 50 mM Tris-HCl, pH 8, 2 mM MgCl2: Per 1 L of base buffer, combine 1 M Tris-HCl, pH 8 (50 mL), 1 M MgCl2 (2 mL), and distilled water (948 mL). • 2. 1× Assay Buffer: Per 10 mL of 1× Assay Buffer, combine 1× Base Buffer (9.96 mL), 1 M DTT (40 uL), and 10% Tween-20 (1 uL) to provide a final concentration of 50 mM Tris-HCl, pH 8, 2 mM MgCl2, 4 mM DTT, 0.001% Tween-20. • 3. 2× Enzyme Solution: Per 10 mL of 2× Enzyme Solution, combine 1× Assay Buffer (9.99 mL) and 3.24 uM EZH2 5 member complex (6.17 uL) to provide a final enzyme concentration of 1 nM. • 4. SPA Bead Solution: Per 1 mL of SPA Bead Solution, combine Streptavidin coated SPA beads (PerkinElmer, Cat# RPNQ0261, 40 mg) and 1× Assay Buffer (1 mL) to provide a working concentration of 40 mg/mL. • 5. 2× Substrate Solution: Per 10 mL of 2× Substrate Solution, combine 40 mg/mL SPA Bead Solution (375 uL), 1 mM biotinylated histone H3K27 peptide (200 uL), 12.5 uM 3H-SAM (240 uL; 1 mCi/mL), 1 mM cold SAM (57 uL), and 1× Assay Buffer (9.13 mL) to provide a final concentration of 0.75 mg/mL SPA Bead Solution, 10 uM biotinylated histone H3K27 peptide, 0.15 uM 3H-SAM (˜12 uCi/mL 3H-SAM), and 2.85 uM cold SAM. • 6. 2.67× Quench Solution: Per 10 mL of 2.67× Quench Solution, combine 1× Assay Buffer (9.73 mL) and 10 mM cold SAM (267 uL) to provide a final concentration of 100 uM cold SAM.
• 1. Stamp 10 nL/well of 1000× Compound to test wells (as noted above). • 2. Stamp 10 nL/well of 100% DMSO to columns 6 & 18 (high and low controls, respectively).
• 1. Dispense 5 uL/well of 1× Assay Buffer to column 18 (low control reactions). • 2. Dispense 5 uL/well of 2× Substrate Solution to columns 1-24 (note: substrate solution should be mixed to ensure homogeneous bead suspension before dispensing into matrix reservoir). • 3. Dispense 5 uL/well of 2× Enzyme Solution to columns 1-17, 19-24. • 4. Incubate the reaction for 60 min at room temperature.
• 1. Dispense 6 uL/well of the 2.67× Quench Solution to columns 1-24. • 2. Seal assay plates and spin for ˜1 min at 500 rpm. • 3. Dark adapt plates in the ViewLux instrument for 15-60 min.
• 1. Read the assay plates on the Viewlux Plate Reader utilizing the 613 nm emission filter or clear filter (300 s exposure). Reagent addition can be done manually or with automated liquid handler.
Percent inhibition was calculated relative to the DMSO control for each compound concentration and the resulting values were fit using standard IC50 fitting parameters within the ABASE data fitting software package.
The IC50 values of <10 nM indicate that the activity of compound was approaching the limit of detection in the assay. Repeating the assay run(s) may result in somewhat different IC50 values.

T1 sequence (Q15910 whole entry): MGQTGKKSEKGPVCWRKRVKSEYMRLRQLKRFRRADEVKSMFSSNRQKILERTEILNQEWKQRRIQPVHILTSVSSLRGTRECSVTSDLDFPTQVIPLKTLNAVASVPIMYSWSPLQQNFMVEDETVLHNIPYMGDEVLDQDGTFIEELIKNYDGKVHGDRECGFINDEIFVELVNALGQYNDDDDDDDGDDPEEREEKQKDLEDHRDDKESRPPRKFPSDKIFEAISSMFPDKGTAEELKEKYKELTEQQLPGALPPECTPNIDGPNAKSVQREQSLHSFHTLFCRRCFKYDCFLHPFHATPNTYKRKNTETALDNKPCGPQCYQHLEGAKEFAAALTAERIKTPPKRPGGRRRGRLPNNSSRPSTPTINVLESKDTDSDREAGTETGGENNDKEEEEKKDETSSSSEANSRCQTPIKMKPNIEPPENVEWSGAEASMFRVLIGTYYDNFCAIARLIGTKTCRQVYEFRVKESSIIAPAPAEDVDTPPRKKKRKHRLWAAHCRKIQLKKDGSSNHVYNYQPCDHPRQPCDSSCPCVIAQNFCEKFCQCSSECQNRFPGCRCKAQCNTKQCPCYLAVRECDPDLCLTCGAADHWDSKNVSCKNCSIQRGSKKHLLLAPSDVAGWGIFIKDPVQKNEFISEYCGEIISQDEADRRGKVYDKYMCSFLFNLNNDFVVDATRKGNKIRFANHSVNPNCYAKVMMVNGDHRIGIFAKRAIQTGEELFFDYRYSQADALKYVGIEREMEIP
T1 sequence (O75530 whole entry partner): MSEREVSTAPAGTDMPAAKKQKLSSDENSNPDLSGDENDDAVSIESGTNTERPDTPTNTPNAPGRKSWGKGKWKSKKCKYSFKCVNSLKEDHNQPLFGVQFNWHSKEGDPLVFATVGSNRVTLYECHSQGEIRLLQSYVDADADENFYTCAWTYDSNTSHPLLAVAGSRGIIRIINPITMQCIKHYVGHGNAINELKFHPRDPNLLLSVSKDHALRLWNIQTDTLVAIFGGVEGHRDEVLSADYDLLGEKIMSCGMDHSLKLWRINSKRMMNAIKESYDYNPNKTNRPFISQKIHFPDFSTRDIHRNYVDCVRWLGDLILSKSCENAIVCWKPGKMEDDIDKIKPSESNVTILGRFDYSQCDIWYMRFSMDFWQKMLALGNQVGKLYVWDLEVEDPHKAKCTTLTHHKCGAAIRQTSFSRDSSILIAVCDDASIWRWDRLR
T1 sequence (Q15022 whole entry partner): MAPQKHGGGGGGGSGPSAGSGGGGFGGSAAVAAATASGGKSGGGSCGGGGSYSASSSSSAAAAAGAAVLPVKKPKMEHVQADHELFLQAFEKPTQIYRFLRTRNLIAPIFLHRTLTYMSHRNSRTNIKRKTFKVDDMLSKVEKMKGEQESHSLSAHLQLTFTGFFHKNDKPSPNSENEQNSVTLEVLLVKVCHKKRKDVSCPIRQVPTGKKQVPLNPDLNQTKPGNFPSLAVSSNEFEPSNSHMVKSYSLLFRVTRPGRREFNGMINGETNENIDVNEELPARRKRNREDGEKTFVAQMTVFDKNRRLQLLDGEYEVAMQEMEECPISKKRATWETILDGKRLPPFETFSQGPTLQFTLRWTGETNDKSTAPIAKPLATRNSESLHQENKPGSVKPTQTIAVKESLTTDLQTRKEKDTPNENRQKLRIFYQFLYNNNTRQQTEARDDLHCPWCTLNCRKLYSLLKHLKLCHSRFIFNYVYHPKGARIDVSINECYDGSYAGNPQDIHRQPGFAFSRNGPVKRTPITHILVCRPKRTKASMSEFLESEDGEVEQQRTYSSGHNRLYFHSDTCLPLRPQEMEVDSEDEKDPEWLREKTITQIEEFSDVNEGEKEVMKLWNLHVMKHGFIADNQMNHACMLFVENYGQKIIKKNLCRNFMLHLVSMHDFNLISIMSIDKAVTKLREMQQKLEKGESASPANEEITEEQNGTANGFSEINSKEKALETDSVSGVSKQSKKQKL
T1 sequence (Q09028 whole entry partner): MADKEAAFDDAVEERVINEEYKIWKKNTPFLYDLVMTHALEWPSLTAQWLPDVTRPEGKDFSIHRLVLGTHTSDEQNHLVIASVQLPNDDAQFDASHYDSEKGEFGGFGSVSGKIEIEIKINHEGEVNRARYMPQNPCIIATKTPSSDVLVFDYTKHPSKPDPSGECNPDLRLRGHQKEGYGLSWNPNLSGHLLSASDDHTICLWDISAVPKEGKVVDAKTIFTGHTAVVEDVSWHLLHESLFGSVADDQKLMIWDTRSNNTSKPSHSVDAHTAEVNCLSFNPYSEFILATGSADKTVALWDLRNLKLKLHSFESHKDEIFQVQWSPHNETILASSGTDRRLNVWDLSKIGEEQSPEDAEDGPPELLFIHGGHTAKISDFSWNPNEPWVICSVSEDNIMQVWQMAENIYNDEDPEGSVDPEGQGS
T1 sequence (Q6ZN18 whole entry partner): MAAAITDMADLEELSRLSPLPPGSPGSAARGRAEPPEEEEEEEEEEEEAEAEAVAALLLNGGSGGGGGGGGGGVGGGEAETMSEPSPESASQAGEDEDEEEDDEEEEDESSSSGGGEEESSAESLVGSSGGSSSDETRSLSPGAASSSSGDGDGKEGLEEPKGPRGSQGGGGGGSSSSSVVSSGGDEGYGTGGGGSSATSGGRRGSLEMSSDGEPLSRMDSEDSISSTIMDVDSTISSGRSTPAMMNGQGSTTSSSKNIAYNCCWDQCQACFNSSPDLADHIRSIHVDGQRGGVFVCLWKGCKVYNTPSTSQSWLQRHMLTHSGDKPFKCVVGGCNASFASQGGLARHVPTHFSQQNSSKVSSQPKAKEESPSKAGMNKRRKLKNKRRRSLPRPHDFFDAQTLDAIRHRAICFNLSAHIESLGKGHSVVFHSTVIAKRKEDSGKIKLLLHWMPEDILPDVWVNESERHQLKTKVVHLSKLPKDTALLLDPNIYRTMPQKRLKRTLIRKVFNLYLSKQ

Structure (SMILES)	IC50 [nM]
CCC(c1scc(C(=O)NCc2c(C)cc(C)[nH]c2=O)c1C)C1CCN(CC(C)(C)F)CC1 (racemic) [Example 6, N-((4,6-Dimethyl-2-oxo-1,2-dihydropyridin-3-yl)methyl)-5-(1-(1-(2-fluoro-2-methylpropyl)piperidin-4-yl)propyl)-4-methylthiophene-3-carboxamide]	50
CCC(c1scc(C(=O)NCc2c(C)cc(C)[nH]c2=O)c1C)C1CCN(CC(F)(F)F)CC1 (racemic) [Example 11, N-((4,6-Dimethyl-2-oxo-1,2-dihydropyridin-3-yl)methyl)-4-methyl-5-(1-(1-(2,2,2-trifluoroethyl)piperidin-4-yl)propyl)thiophene-3-carboxamide]	20
CCC(c1scc(C(=O)NCc2c(C)cc(C)[nH]c2=O)c1C)C1CCN(CC(F)F)CC1 (racemic) [Example 14, 5-(1-(1-(2,2-Difluoroethyl)piperidin-4-yl)propyl)-N-((4,6-dimethyl-2-oxo-1,2-dihydropyridin-3-yl)methyl)-4-methylthiophene-3-carboxamide]	40
CCC(=C1CCN(CC(C)(F)F)CC1)c1scc(C(=O)NCc2c(C)cc(C)[nH]c2=O)c1C [Example 1, 5-(1-(1-(2,2-Difluoropropyl)piperidin-4-ylidene)propyl)-N-((4,6-dimethyl-2-oxo-1,2-dihydropyridin-3-yl)methyl)-4-methylthiophene-3-carboxamide]	16
CCC(=C1CCN(CC(C)(C)F)CC1)c1scc(C(=O)NCc2c(C)cc(C)[nH]c2=O)c1C [Example 2, N-((4,6-Dimethyl-2-oxo-1,2-dihydropyridin-3-yl)methyl)-5-(1-(1-(2-fluoro-2-methylpropyl)piperidin-4-ylidene)propyl)-4-methylthiophene-3-carboxamide]	≤ 10
CCC(=C1CCN(CC(F)(F)F)CC1)c1scc(C(=O)NCc2c(C)cc(C)[nH]c2=O)c1C [Example 3, N-((4,6-Dimethyl-2-oxo-1,2-dihydropyridin-3-yl)methyl)-4-methyl-5-(1-(1-(2,2,2-trifluoroethyl)piperidin-4-ylidene)propyl)thiophene-3-carboxamide]	≤ 10
CC[C@@H](c1scc(C(=O)NCc2c(C)cc(C)[nH]c2=O)c1C)C1CCN(CC(C)(F)F)CC1 [Example 4, (R)-5-(1-(1-(2,2-Difluoropropyl)piperidin-4-yl)propyl)-N-((4,6-dimethyl-2-oxo-1,2-dihydropyridin-3-yl)methyl)-4-methylthiophene-3-carboxamide]	20
CC[C@H](c1scc(C(=O)NCc2c(C)cc(C)[nH]c2=O)c1C)C1CCN(CC(C)(F)F)CC1 [Example 5, (S)-5-(1-(1-(2,2-Difluoropropyl)piperidin-4-yl)propyl)-N-((4,6-dimethyl-2-oxo-1,2-dihydropyridin-3-yl)methyl)-4-methylthiophene-3-carboxamide]	501
CCC(=C1CCN(N(C)C)CC1)c1scc(C(=O)NCc2c(C)cc(C)[nH]c2=O)c1C [Example 7, N-((4,6-Dimethyl-2-oxo-1,2-dihydropyridin-3-yl)methyl)-5-(1-(1-(dimethylamino)piperidin-4-ylidene)propyl)-4-methylthiophene-3-carboxamide]	20
CCC(=C1CCN(O)CC1)c1scc(C(=O)NCc2c(C)cc(C)[nH]c2=O)c1C [Example 8, N-((4,6-Dimethyl-2-oxo-1,2-dihydropyridin-3-yl)methyl)-5-(1-(1-hydroxypiperidin-4-ylidene)propyl)-4-methylthiophene-3-carboxamide]	16
CCC(c1sc2c(c1C)C(=O)N(Cc1c(C)cc(C)[nH]c1=O)CC2)N1CCC(N(C)C)CC1 (centres unmarked) [Example 9]	50
CCC(=C1CCC(O)CC1)c1scc(C(=O)NCc2c(C)cc(C)[nH]c2=O)c1C (centres unmarked) [Example 10, N-((4,6-Dimethyl-2-oxo-1,2-dihydropyridin-3-yl)methyl)-5-(1-(4-hydroxycyclohexylidene)propyl)-4-methylthiophene-3-carboxamide]	≤ 10
CCC(=C1CCN(Cc2ncco2)CC1)c1scc(C(=O)NCc2c(C)cc(C)[nH]c2=O)c1C [Example 12, N-((4,6-Dimethyl-2-oxo-1,2-dihydropyridin-3-yl)methyl)-4-methyl-5-(1-(1-(oxazol-2-ylmethyl)piperidin-4-ylidene)propyl)thiophene-3-carboxamide]	≤ 10
CCC(=C1CCN(c2ncccn2)CC1)c1scc(C(=O)NCc2c(C)cc(C)[nH]c2=O)c1C [Example 13, N-((4,6-Dimethyl-2-oxo-1,2-dihydropyridin-3-yl)methyl)-4-methyl-5-(1-(1-(pyrimidin-2-yl)piperidin-4-ylidene)propyl)thiophene-3-carboxamide]	13
CCC(=C1CCN(/C(=N/C#N)NC)CC1)c1scc(C(=O)NCc2c(C)cc(C)[nH]c2=O)c1C [Example 15, 5-(1-(1-(N′-Cyano-N-methylcarbamimidoyl)piperidin-4-ylidene)propyl)-N-((4,6-dimethyl-2-oxo-1,2-dihydropyridin-3-yl)methyl)-4-methylthiophene-3-carboxamide]	≤ 10
CCC(c1sc2c(c1C)C(=O)N(Cc1c(C)cc(C)[nH]c1=O)CC2)C1CCN(CC(C)(F)F)CC1 (centres unmarked) [Example 16, 2-(1-(1-(2,2-Difluoropropyl)piperidin-4-yl)propyl)-5-((4,6-dimethyl-2-oxo-1,2-dihydropyridin-3-yl)methyl)-3-methyl-6,7-dihydrothieno[3,2-c]pyridin-4(5H)-one]	100
CCC(c1sc2c(c1C)C(=O)N(Cc1c(C)cc(C)[nH]c1=O)CC2)C1CCN(CC(C)F)CC1 (centres unmarked) [Example 17, 5-((4,6-Dimethyl-2-oxo-1,2-dihydropyridin-3-yl)methyl)-2-(1-(1-(2-fluoropropyl)piperidin-4-yl)propyl)-3-methyl-6,7-dihydrothieno[3,2-c]pyridin-4(5H)-one]	100
CCC(c1sc2c(c1C)C(=O)N(Cc1c(C)cc(C)[nH]c1=O)CC2)C1CCN(/C(=N\C#N)NC)CC1 (centres unmarked) [Example 18, N′-Cyano-4-(1-(5-((4,6-dimethyl-2-oxo-1,2-dihydropyridin-3-yl)methyl)-3-methyl-4-oxo-4,5,6,7-tetrahydrothieno[3,2-c]pyridin-2-yl)propyl)-N-methylpiperidine-1-carboximidamide]	≤ 10
CCC(c1scc(C(=O)NCc2c(C)cc(C)[nH]c2=O)c1C)C1CCN(/C(=N\C#N)NC)CC1 (centres unmarked) [Example 19, 5-(1-(1-(N′-Cyano-N-methylcarbamimidoyl)piperidin-4-yl)propyl)-N-((4,6-dimethyl-2-oxo-1,2-dihydropyridin-3-yl)methyl)-4-methylthiophene-3-carboxamide]	316
CCC(=C1CCN(CC(F)F)CC1)c1scc(C(=O)NCc2c(C)cc(C)[nH]c2=O)c1C [Example 20, 5-(1-(1-(2,2-Difluoroethyl)piperidin-4-ylidene)propyl)-N-((4,6-dimethyl-2-oxo-1,2-dihydropyridin-3-yl)methyl)-4-methylthiophene-3-carboxamide]	≤ 10
